Assay results taken from patent US20220378923A1, “BET DEGRADER” (KYOWA KIRIN CO., LTD., priority 2019, published 2022).
Where two headings read alike, the source gives them in different places.

Tests used:
[1] = system: SU-DHL-4 cells; assay: Inhibitory effect on cell viability in SU-DHL-4 cell line (Test Example 1); type: cell-based, human; settings: 72 hours; for IC50: SU-DHL-4 (wild type) cells, calculated using the measurement results of test example 1, read-out: SU-DHL-4 WT IC50; for IC90: SU-DHL-4 cells, Cell Counting Kit-8, concentration showing 90% inhibition of cell viability, read-out: SU-DHL-4 Cell Viability Inhibition Rate IC90
In short: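 SU-DHL-4 cells were grown at 37° C. under 5% CO2 in RPMI1640 with 10 vol % heat-inactivated FBS plus penicillin/streptomycin, seeded and precultured for 18 to 25 hours, then exposed to test compound at 0.1 vol % DMSO for 72 hours. Viability was read with Cell Counting Kit-8 by absorbance at 450 nm.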

[2] = system: DCAF16 KO SU-DHL-4 cells; assay: Inhibitory effect on cell viability using SU-DHL-4 DCAF16 knock out (KO) cell line (Test Example 6); type: cell-based, human; settings: for Activity Attenuation Ratio: (SU-DHL-4 DCAF16 KO IC50)/(SU-DHL-4 WT IC50); for IC50: DCAF16 KO SU-DHL-4 cells, 72 hours, Cell Counting Kit-8, 50% inhibition of cell viability
In short: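 SU-DHL-4 DLBCL cells carrying lentiviral Cas9 plus DCAF16-targeting sgRNA (three KO strains; non-targeting control strain), seeded 2000 cells/well, pre-cultured 18–25 h, then given 9-step compound dilutions (0.1% DMSO final) for 72 h at 37° C. Viability read by CCK-8 colorimetric assay.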

Row | Structure (SMILES) | IC50 ([1]; Homo sapiens) [nM] | IC50 ([2]; Homo sapiens) [nM] | IC50 [1] [nM] | IC90 [1] [nM] | IC50 [2] [nM] | Activity Attenuation Ratio [2]
1 | CCC(=O)N1c2ccccc2[C@H](Nc2ccc(C(=O)N3CCn4c(-c5ccc(N[C@@H]6C[C@H](C)N(C(=O)CC)c7ccccc76)cc5)cnc4C3)cc2)C[C@@H]1C [Compound 3e, 1-[(2S,4R)-2-Methyl-4-({4-[3-(4-{[(2S,4R)-2-methyl-1-propionyl-1,2,3,4-tetrahydroquinolin-4-yl]amino}phenyl)-5,6,7,8-tetrahydroimidazo[1,2-a]pyrazine-7-carbonyl]phenyl}amino)-3,4-dihydroquinolin-1(2H)-yl]propan-1-one] | 0.1 | 951 | – | – | – | 9515
2 | CCC(=O)N1c2ccccc2[C@H](Nc2ccc(C(=O)NCCNS(=O)(=O)c3ccc(N[C@@H]4C[C@H](C)N(C(=O)CC)c5ccccc54)cc3)cc2)C[C@@H]1C [Compound 4d, 4-{[(2S,4R)-2-Methyl-1-propionyl-1,2,3,4-tetrahydroquinolin-4-yl]amino}-N-{2-[(4-{[(2S,4R)-2-methyl-1-propionyl-1,2,3,4-tetrahydroquinolin-4-yl]amino}phenyl)sulfonamide]ethyl}benzamide] | – | – | 4.18 | 13 | 1530 | 365
3 | CCC(=O)N1c2ccccc2[C@H](Nc2ccc(NC(=O)CNCC(=O)Nc3ccc(N[C@@H]4C[C@H](C)N(C(=O)CC)c5ccccc54)cc3)cc2)C[C@@H]1C [Compound 5d, 2,2′-Azanediylbis(N-(4-(((2S,4R)-2-methyl-1-propionyl-1,2,3,4-tetrahydroquinolin-4-yl)amino)phenyl)acetamide)] | 0.31 | 167 | – | – | – | 546
4 | CCC(=O)N1c2ccccc2[C@H](Nc2ccc(CNCc3cn(-c4ccc(N[C@@H]5C[C@H](C)N(C(=O)CC)c6ccccc65)cc4)nn3)cc2)C[C@@H]1C [Compound 5h, 1-((2S,4R)-2-Methyl-4-((4-((((1-(4-(((2S,4R)-2-methyl-1-propionyl-1,2,3,4-tetrahydroquinolin-4-yl)amino)phenyl)-1H-1,2,3-triazol-4-yl)methyl)amino)methyl)phenyl)amino)-3,4-dihydroquinolin-1(2H)-yl)propan-1-one] | 0.06 | 58.4 | – | – | – | 942
5 | CCC(=O)N1c2ccccc2[C@H](Nc2ccc(Cn3cc(C(=O)Nc4ccc(N[C@@H]5C[C@H](C)N(C(=O)CC)c6ccccc65)cc4)nn3)cc2)C[C@@H]1C [Compound 5j, 1-(4-(((2S,4R)-2-Methyl-1-propionyl-1,2,3,4-tetrahydroquinolin-4-yl)amino)benzyl)-N-(4-(((2S,4R)-2-methyl-1-propionyl-1,2,3,4-tetrahydroquinolin-4-yl)amino)phenyl)-1H-1,2,3-triazolee-4-carboxamide] | – | – | 0.04 | 0.08 | 37.3 | 941
6 | CCC(=O)N1c2ccccc2[C@H](Nc2ccc(Cc3cnc4n3CCN(C(=O)c3ccc(N[C@@H]5C[C@H](C)N(C(=O)CC)c6ccccc65)cc3)C4)cc2)C[C@@H]1C [Compound 5q, 1-((2S,4R)-2-Methyl-4-((4-((7-(4-(((2S,4R)-2-methyl-1-propionyl-1,2,3,4-tetrahydroquinolin-4-yl)amino)benzoyl)-5,6,7,8-tetrahydroimidazo[1,2-a]pyrazin-3-yl)methyl)phenyl)amino)-3,4-dihydroquinolin-1(2H)-yl)propan-1-one] | 0.09 | 622 | – | – | – | 7078
7 | CCC(=O)N1c2ccccc2[C@H](Nc2ccc(CCCC(=O)Nc3ccc(N[C@@H]4C[C@H](C)N(C(=O)CC)c5ccccc54)cc3)cc2)C[C@@H]1C [Compound 5r, N,4-Bis(4-(((2S,4R)-2-methyl-1-propionyl-1,2,3,4-tetrahydroquinolin-4-yl)amino)phenyl)butanamide] | 0.53 | 15.7 | – | – | – | 30
8 | CCC(=O)N1c2ccccc2C(Nc2ccc(NC(=O)C#CCNC(=O)c3ccc(N[C@@H]4C[C@H](C)N(C(=O)CC)c5ccccc54)cc3)cc2)CC1C (stereo partly drawn) [Compound 6h, 4-(((2S,4R)-2-Methyl-1-propionyl-1,2,3,4-tetrahydroquinolin-4-yl)amino)-N-(4-((4-((2-methyl-1-propionyl-1,2,3,4-tetrahydroquinolin-4-yl)amino)phenyl)amino)-4-oxobut-2-yn-1-yl)benzamide] | 0.003 | 6.8 | – | – | – | 2250

Now from value to compound, other results behind:

Row | IC50 ([1]; Homo sapiens) [nM] | IC50 ([2]; Homo sapiens) [nM] | IC50 [1] [nM] | IC90 [1] [nM] | IC50 [2] [nM] | Structure (SMILES) | Activity Attenuation Ratio [2]
9 | – | – | 0.53 | 1.15 | 397 | CCC(=O)N1c2ccccc2[C@H](Nc2ccc(NC(=O)CCCC(=O)NC3CCC(N[C@@H]4C[C@H](C)N(C(=O)CC)c5ccccc54)CC3)cc2)C[C@@H]1C (stereo partly drawn) [Compound 7o, N^1-((1R,4r)-4-(((2S,4R)-2-Methyl-1-propionyl-1,2,3,4-tetrahydroquinolin-4-yl)amino)cyclohexyl)-N^5-(4-(((2S,4R)-2-methyl-1-propionyl-1,2,3,4-tetrahydroquinolin-4-yl)amino)phenyl)glutaramide] | 750
10 | – | – | 0.38 | 0.79 | 293 | CCC(=O)N1c2ccccc2[C@H](Nc2ccc(NC(=O)N3CCN(C(=O)C4CCC(N[C@@H]5C[C@H](C)N(C(=O)CC)c6ccccc65)CC4)CC3)cc2)C[C@@H]1C (stereo partly drawn) [Compound 7p, 4-((1R,4r)-4-(((2S,4R)-2-Methyl-1-propionyl-1,2,3,4-tetrahydroquinolin-4-yl)amino)cyclohexane-1-carbonyl)-N-(4-(((2S,4R)-2-methyl-1-propionyl-1,2,3,4-tetrahydroquinolin-4-yl)amino)phenyl)piperazine-1-carboxamide] | 766
11 | – | – | 0.09 | 0.24 | 79.7 | CCC(=O)N1c2ccccc2[C@H](Nc2ccc(-c3nnc(CNC(=O)[C@H]4CC[C@H](N[C@@H]5C[C@H](C)N(C(=O)CC)c6ccccc65)CC4)o3)cc2)C[C@@H]1C [Compound 7q, (1R,4R)-4-(((2S,4R)-2-Methyl-1-propionyl-1,2,3,4-tetrahydroquinolin-4-yl)amino)-N-((5-(4-(((2S,4R)-2-methyl-1-propionyl-1,2,3,4-tetrahydroquinolin-4-yl)amino)phenyl)-1,3,4-oxadiazol-2-yl)methyl)cyclohexane-1-carboxamide] | 850
12 | – | – | 0.29 | 0.5 | 228 | CCC(=O)N1c2ccccc2[C@H](Nc2ccc(NC(=O)CNC(=O)N[C@H]3CC[C@H](N[C@@H]4C[C@H](C)N(C(=O)CC)c5ccccc54)CC3)cc2)C[C@@H]1C [Compound 8j, 2-(3-((1R,4R)-4-(((2S,4R)-2-Methyl-1-propionyl-1,2,3,4-tetrahydroquinolin-4-yl)amino)cyclohexyl)ureido)-N-(4-(((2S,4R)-2-methyl-1-propionyl-1,2,3,4-tetrahydroquinolin-4-yl)amino)phenyl)acetamide] | 767
13 | – | – | 0.3 | 0.47 | 67.4 | CCC(=O)N1c2ccccc2[C@H](Nc2ccc(C(=O)N3CC(C(=O)N[C@H]4CC[C@H](N[C@@H]5C[C@H](C)N(C(=O)CC)c6ccccc65)CC4)C3)cc2)C[C@@H]1C [Compound 8r, 1-(4-(((2S,4R)-2-Methyl-1-propionyl-1,2,3,4-tetrahydroquinolin-4-yl)amino)benzoyl)-N-((1R,4R)-4-(((2S,4R)-2-methyl-1-propionyl-1,2,3,4-tetrahydroquinolin-4-yl)amino)cyclohexyl)azetidine-3-carboxamide] | 224
